Assay: Solubility of bismaleimides in organic solvents (saturated solution, gravimetric)
Type: physicochemical
Settings: in comparison to other aliphatic bismaleimides
Description: The solubility of compounds in the present invention is determined as follows: • 10 g of a sample are weighed into a 100 ml conical flask. 50 ml of a solvent are added to the flask and the mixture is stirred with magnetic bar for 1 h at 25° C. to assure the formation of a saturated solution. If the entire sample is dissolved, additional portion of the sample should be added and the mixture should be stirred further for 1 h. In the end, a portion of undissolved material should be clearly seen at the bottom of the flask. After that, the supematant is filtered through a folded filter. Some 15 g of the filtrate are weighed into a tared round-bottom flask, and the solvent is evaporated to dryness on a rotary evaporator at 90° C. under reduced pressure. Finally, the flask is dried in a vacuum drying cabinet at 120° C. for 2 h under reduced pressure, cooled down to room temperature in a desiccator and weighed.
The solubility value is then calculated as:
The solubility of the example and comparative examples was determined as follows: • 10 g of a sample were weighed into a 100 ml conical flask. 50 ml of a solvent were added to the flask and the mixture was stirred with magnetic bar for 1 h at 25° C. to assure the formation of a saturated solution. If the entire sample was dissolved, additional portion of the sample should be added and the mixture should be stirred further for 1 h. […]

## CC1CC(C(CN2C(=O)C=CC2=O)CN2C(=O)C=CC2=O)CC(C)(C)C1 (stereo not shown) [2-(3,3,5-trimethylcyclohexyl)propane-1,3-bismaleimide]
  Solubility in different organic solvents (in words): highly soluble

From US20240351981A1, “NOVEL BISMALEIMIDE COMPOUNDS HAVING IMPROVED SOLUBILITY AND THEIR USE IN CURABLE COMPOSITIONS” (Evonik Operations GmbH, priority 2021, published 2024)
